Several values for one entry are separate records, joined by “and”; a condition that tells them apart may be missing. Equal entries are not always repeated.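 Exposure lasted 48 hours, with cells grown in 96-well plates and compounds tested at five concentrations. At the GI50, growth is halved. TGI: total growth inhibition.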
Columns and labels:
Test in all cases: inhibition of tumour cell growth, NCI panel, 48 h
HOP-92 NSCLC = test system: HOP-92 NSCLC
SNB-19 CNS = test system: SNB-19 CNS
HCC-2998 colon = test system: HCC-2998 colon
SNB-75 CNS = test system: SNB-75 CNS
HCT-15 colon = test system: HCT-15 colon
TK-10 renal = test system: TK-10 renal
SR leukemia = test system: SR leukemia
MDA-MB-231 breast = test system: MDA-MB-231 breast
A498 renal = test system: A498 renal
MALME-3M melanoma = test system: MALME-3M melanoma

| SMILES | GI50 (HOP-92 NSCLC) | TGI (HOP-92 NSCLC) | GI50 (SNB-19 CNS) | TGI (SNB-19 CNS) | GI50 (HCC-2998 colon) | TGI (HCC-2998 colon) | GI50 (SNB-75 CNS) | TGI (SNB-75 CNS) | GI50 (HCT-15 colon) | TGI (HCT-15 colon) | GI50 (TK-10 renal) | TGI (TK-10 renal) | GI50 (SR leukemia) | TGI (SR leukemia) | GI50 (MDA-MB-231 breast) | TGI (MDA-MB-231 breast) | GI50 (A498 renal) | TGI (A498 renal) | TGI (MALME-3M melanoma) | GI50 (MALME-3M melanoma) |
| --- | --- | --- | --- | --- | --- | --- | --- | --- | --- | --- | --- | --- | --- | --- | --- | --- | --- | --- | --- | --- |
| c1cc[c]([Sn]([O]c2cccc3cccnc23)([c]2ccccc2)[c]2ccccc2)cc1 | 0.0172 µM | 0.0575 µM | 0.04 µM | 0.127 µM | 0.0236 µM | 0.0625 µM | 0.0509 µM | 0.198 µM | 0.0139 µM | 0.0285 µM | 0.0229 µM | 0.0693 µM | – | – | – | – | – | – | – | – |
| C=C1C(=O)O[C@H]2[C@H]1CC/C(COC(=O)c1ccc(Br)cc1)=C\CC[C@@]1(C)O[C@@H]21 | 1.72 µM | 3.29 µM | 1.85 µM | 4.08 µM | 2.05 µM | 4.27 µM | 1.16 µM | 2.41 µM | 1.1 µM | 3.06 µM | 1.9 µM | 3.33 µM | 0.343 µM | 4.75 µM | 1.73 µM | 3.51 µM | 11 µM | 23.7 µM | – | – |
| COc1ccccc1NC(=O)NS(=O)(=O)c1ccccc1 | – | > 100 µM | – | > 100 µM | – | > 100 µM | – | > 100 µM | – | – | – | > 100 µM | – | – | – | – | – | – | > 100 µM | – |
| CC1CC(=O)CC[C@@H]1OCc1ccccc1 (some centres not stated) | – | – | – | > 100 µM | – | > 100 µM | – | > 100 µM | – | > 100 µM | – | > 100 µM | – | – | – | – | – | > 100 µM | > 100 µM | – |
| COc1ccc(CN[C@H]2CCc3cc(OC)c(OC)c(OC)c3-c3ccc(SC)c(=O)cc32)c(OC)c1OC | 0.0295 µM | 77.2 µM | – | > 100 µM | 0.0238 µM | 0.0413 µM and 0.0657 µM | 5.77 µM | – | – | 0.0938 µM | – | > 100 µM | < 0.01 µM | – | – | – | – | 0.0804 µM | > 100 µM | < 0.01 µM |
| COC(=O)C([O][Ge]([CH3])([CH3])[CH3])c1ccccc1 (configuration not stated) | > 100 µM | > 100 µM | > 100 µM | > 100 µM | > 100 µM | > 100 µM | > 100 µM | > 100 µM | > 100 µM | > 100 µM | > 100 µM | > 100 µM | – | – | – | – | > 100 µM | > 100 µM | > 100 µM | > 100 µM |
| C=CCN1C(=O)C/C(=C2/CCC(=O)N2CC=C)C1=O | – | > 100 µM | – | > 100 µM | – | > 100 µM | – | > 100 µM | – | > 100 µM | – | > 100 µM | – | > 100 µM | – | – | – | > 100 µM | > 100 µM | – |
| N#CC(N)(C(=O)C(=O)NCCCNC(=O)C(=O)C(N)(C#N)c1ccc(Cl)cc1)c1ccc(Cl)cc1 (configuration not stated) | – | > 100 µM | – | > 100 µM | – | > 100 µM | – | > 100 µM | – | > 100 µM | – | > 100 µM | – | > 100 µM | – | – | – | > 100 µM | > 100 µM | – |
| CC(C)S(=O)(=O)ON1C(=O)c2ccc([N+](=O)[O-])cc2C1=O | – | > 100 µM | – | > 100 µM | – | > 100 µM | – | > 100 µM | – | > 100 µM | – | > 100 µM | – | > 100 µM | – | – | – | > 100 µM | > 100 µM | – |
| CCC1C(=O)OCc2c1cc1n(c2=O)Cc2ccccc2-1 (configuration not stated) | – | > 100 µM | – | > 100 µM | – | > 100 µM | – | > 100 µM | – | > 100 µM | – | > 100 µM | – | > 100 µM | – | – | – | > 100 µM | > 100 µM | – |
| COc1ccc(OC)c(/C=C/C(=O)c2ccc(SC)cc2)c1 | 6 µM | > 100 µM | 9.68 µM | 46.5 µM | 4.81 µM | 17.1 µM | 8.88 µM | > 100 µM | 13.8 µM | 36.6 µM | 17.9 µM | 65.7 µM | – | – | 54 µM | > 100 µM | 13.7 µM | 30.3 µM | – | – |
| Cc1ccc(S(=O)(=O)N/N=C/CN2C(=O)c3ccccc3C2=O)cc1 | – | – | – | > 100 µM | – | > 100 µM | – | > 100 µM | – | > 100 µM | – | > 100 µM | – | > 100 µM | – | – | – | > 100 µM | > 100 µM | – |
| Clc1cc(-c2csc(Cl)c2)cs1 | – | > 100 µM | – | > 100 µM | – | – | – | > 100 µM | – | > 100 µM | – | > 100 µM | – | > 100 µM | – | > 100 µM | – | > 100 µM | – | – |
| CC(C)N(C(=O)C12C3C4C5C3C1(C(=O)N(C(C)C)C(C)C)C5C42)C(C)C (configuration not stated) | – | > 100 µM | – | > 100 µM | – | > 100 µM | – | > 100 µM | – | > 100 µM | – | > 100 µM | – | 38.7 µM | – | – | – | > 100 µM | > 100 µM | – |
| CCOC(=O)CCC(NC(=O)c1ccc(Nc2nc3cc(N)cc(N)c3nc2-c2ccccc2)cc1)C(=O)OCC (configuration not stated) | 10.8 µM | 29.7 µM | > 46.4 µM | > 100 µM | – | – | > 100 µM | > 100 µM | > 48.1 µM | > 100 µM | > 57.4 µM | > 87.3 µM | – | – | 16.5 µM | > 53.2 µM | – | – | 15.8 µM | 8.1 µM |
| COc1ccc2nc(NC(=O)C(=O)C(C#N)c3ccc(CC#N)cc3)sc2c1 (configuration not stated) | – | > 100 µM | – | > 100 µM | – | > 100 µM | – | > 100 µM | – | > 100 µM | – | > 100 µM | – | – | – | – | – | > 100 µM | > 100 µM | – |
| Nc1ccc(C(=O)N/C(=C\c2ccc3c(c2)OCO3)c2nc3ccc4c(c3[nH]2)C(=O)c2ccccc2C4=O)cc1 | – | 95.7 µM | – | > 100 µM | – | > 100 µM | – | 57.8 µM | – | > 100 µM | – | 85.7 µM | – | – | – | – | – | 93.9 µM | > 100 µM | – |
| C/C(CC(=O)Nc1cc(Cl)c(Cl)cc1Cl)=N\NS(=O)(=O)c1ccc(C)cc1 | – | 59 µM | – | – | – | 86.5 µM | – | > 100 µM | – | – | – | > 100 µM | – | – | – | – | – | > 100 µM | > 100 µM | – |
| COc1ccc(C(=O)C(CN(C)C)c2ccccc2)cc1 (configuration not stated) | – | – | 11.1 µM | 23.1 µM | 2.28 µM | 3.94 µM | 12.8 µM | 27.3 µM | 1.81 µM | 4.73 µM | 3.01 µM | 7.85 µM | – | – | 5.41 µM | 17.4 µM | 8.11 µM | 20.5 µM | 13.6 µM | 3.3 µM |
| CC(C)C(NCc1c2ccccc2nc2ccccc12)C(=O)O (configuration not stated) | – | 61.9 µM | – | – | – | > 100 µM | – | > 100 µM | – | > 100 µM | – | > 100 µM | – | > 100 µM | – | – | – | – | > 100 µM | – |
| COc1cccc(C2N3CCCCC3[C@@H]3c4[nH]c5ccccc5c4CCN23)c1OC (some centres not stated) | – | 31.6 µM | – | 24.3 µM | – | – | – | – | – | 30.8 µM | – | 33.4 µM | – | – | – | – | – | 23.8 µM | – | – |

Reference: PubChem BioAssay (NCI)
